From patent US12227509B2, “Dihydropyrazolopyrazinone derivative having MGAT2 inhibitory activity” (Shionogi & Co., Ltd., priority 2019, dated 2025)

Experiments:
[1] = Metabolism stability test (human liver microsomes); format: in vitro ADME; conditions: compound concentration 0.5 μmol/L, 37° C., 30 minutes, NADPH
Protocol: Using commercially available pooled human hepatic microsomes, the compound of the present invention was reacted for a constant time, a remaining rate was calculated by comparing a reacted sample and an unreacted sample, thereby, a degree of metabolism of the compound of the present invention in liver was assessed.
A reaction was performed (oxidative reaction) at 37° C. for 0 minute or 30 minutes in the presence of 1 mmol/L NADPH in 0.2 mL of a buffer (50 mmol/L Tris-HCl pH 7.4, 150 mmol/L potassium chloride, 10 mmol/L magnesium chloride) containing 0.5 mg protein/mL of human liver microsomes. After the reaction, 50 μL of the reaction solution was added to 100 μL of a methanol/acetonitrile=1/1 (v/v) solution, mixed and centrifuged at 3000 rpm for 15 minutes. The compound of the present invention in the supernatant was quantified by LC/MS/MS, and a remaining amount of the compound of the present invention after the reaction was calculated, letting a compound amount at 0 minute reaction time to be 100%.

CYP3A4 [2] = molecular target: T1, CYP3A4 (Homo sapiens (Human), UniProt P08684); assay: CYP inhibition test, CYP3A4; format: in vitro ADME; conditions: pooled human liver microsomes; terfenadine hydroxylation; given as 'five kinds'
Source text: (§1) Using commercially available pooled human hepatic microsome, and employing, as markers, 7-ethoxyresorufin O-deethylation (CYP1A2), tolbutamide methyl-hydroxylation (CYP2C9), mephenytoin 4'-hydroxylation (CYP2C19), dextromethorphan 0-demethylation (CYP2D6), and terfenadine hydroxylation (CYP3A4) as typical substrate metabolism reactions of human main five CYP enzyme forms (CYP1A2, 2C9, 2C19, 2D6, 3A4), an inhibitory degree of each metabolite production amount by the compound of the present invention was assessed. The reaction conditions are as follows: substrate, 0.5 μmol/L ethoxyresorufin (CYP1A2), 100 μmol/L tolbutamide (CYP2C9), 50 μmol/L S-mephenitoin (CYP2C19), 5 μmol/L dextromethorphan (CYP2D6), 1 μmol/L terfenedine (CYP3A4); reaction time, 15 minutes; reaction temperature, 37° C.; enzyme, pooled human liver microsomes 0.2 mg protein/mL; concentrations of the compound of the present invention, 1, 5, 10, 20 μmol/L (four points). As a reaction solution, each five kinds of substrates, human liver microsomes, or compound of the present invention in 50 mmol/L Hepes buffer were added to a 96-well plate at the composition as described above, and NADPH, as a cofactor was added to initiate metabolism reactions. After the incubation at 37° C. for 15 minutes, a methanol/acetonitrile=1/[…]) solution was added to stop the reaction. After the centrifugation at 3000 rpm for 15 minutes, resorufin (CYP1A2 metabolite) in the supernatant was quantified by a fluorescent multilabel counter or LC/MS/MS, and tolbutamide hydroxide (CYP2C9 metabolite), mephenytoin 4' hydroxide (CYP2C19 metabolite), dextrorphan (CYP2D6 metabolite), and terfenadine alcohol (CYP3A4 metabolite) were quantified by LC/MS/MS. Addition of only DMSO being a solvent dissolving a drug to a reaction system was adopted as a control (100%). Remaining activity (%) was calculated. IC50 was calculated by reverse presumption by a logistic model using the concentration and an inhibition rate.

CYP1A2 = CYP1A2 (Homo sapiens (Human), UniProt P05177); assay: CYP inhibition test, CYP1A2; format: in vitro ADME; conditions: pooled human liver microsomes; 7-ethoxyresorufin O-deethylation; given as 'five kinds'
Source text: as §1

CYP2C9 = CYP2C9 (Homo sapiens (Human), UniProt P11712); assay: CYP inhibition test, CYP2C9; format: in vitro ADME; conditions: pooled human liver microsomes; tolbutamide methyl-hydroxylation; given as 'five kinds'
Source text: as §1

CYP2C19 = CYP2C19 (Homo sapiens (Human), UniProt P33261); assay: CYP inhibition test, CYP2C19; format: in vitro ADME; conditions: pooled human liver microsomes; mephenytoin 4′-hydroxylation; given as 'five kinds'
Source text: as §1

hERG (IKr) = hERG (IKr) (Homo sapiens (Human), UniProt Q12809); assay: hERG test; format: cell-based; conditions: CHO cells expressing hERG channel, pH 7.4, 10 μmol/L of test compound, read-out: % inhibition of hERG tail peak current (IKr)
Source text: For the purpose of assessing risk of an electrocardiogram QT interval prolongation of the compound of the present invention, effects of the compound of the present invention on delayed rectifier K^+ current (IKr), which plays an important role in the ventricular repolarization process, was studied using CHO cells expressing human ether-a-go-go related gene (hERG) channel.
After a cell was retained at a membrane potential of −80 mV by whole cell patch clamp method using an automated patch clamp system (QPatch; Sophion BIoscience A/S), IKr induced by application of a leak potential of −50 mV followed by depolarization pulse stimulation at +20 mV for 2 seconds and, further, repolarization pulse stimulation at −50 mV for 2 seconds, was recorded. […] From the recording IKr, an absolute value of the tail peak current was measured based on the current value at the resting membrane potential using analysis software (Falster Patch; Sophion Bioscience A/S). Further, the % inhibition of tail peak current for the compound of the present invention relative to the tail peak current after application of the vehicle is calculated to assess influence of the compound of the present invention on IKr.

CYP3A4 [3] = molecular target: T1, CYP3A4; assay: CYP3A4 (MDZ) MBI test; format: in vitro ADME; conditions: pooled human liver microsomes; midazolam 1-hydroxylation; preincubation 0 vs 30 min
Protocol: CYP3A4 (MDZ) MBI test is a test of investigating mechanism based inhibition (MBI) potential on CYP3A4 by the enhancement of inhibitory degree of a metabolic reaction caused by the compound of the present invention. CYP3A4 inhibition was evaluated using pooled human liver microsomes by 1-hydroxylation reaction of midazolam (MDZ) as a marker reaction.
The reaction conditions are as follows: substrate, 10 μmol/L MDZ; pre-reaction time, 0 or 30 minutes; substrate reaction time, 2 minutes; reaction temperature, 37° C.; protein content of pooled human liver microsomes, at pre-reaction time 0.5 mg/mL, at reaction time 0.05 mg/mL (at 10-fold dilution); concentrations of the compound of the present invention, at pre-reaction time 1, 5, 10, 20 μmol/L (four points).
Pooled human liver microsomes and a solution of the compound of the present invention in K-Pi buffer (pH 7.4) as a pre-reaction solution were added to a 96-well plate at the composition of the pre-reaction. A part of pre-reaction solution was transferred to another 96-well plate, and 1/10 diluted by K-Pi buffer containing a substrate. NADPH as a co-factor was added to initiate a reaction as a marker reaction (without pre-reaction). After a predetermined time of a reaction, methanol/acetonitrile=1/1 (V/V) solution was added to stop the reaction. In addition, NADPH was added to a remaining pre-reaction solution to initiate a pre-reaction (with pre-reaction). After a predetermined time of a pre-reaction, a part was transferred to another plate, and 1/10 diluted by K-Pi buffer containing a substrate to initiate a reaction as a marker reaction. After a predetermined time of a reaction, methanol/acetonitrile=1/1 (V/V) solution was added in order to stop the reaction. The plate on which each index reaction had been performed was centrifuged at 3000 rpm for 15 minutes, and thereafter 1-hydroxylated midazolam in the supernatant was quantified by LC/MS/MS.
The sample adding DMSO as a solvent to a reaction system instead of a solution dissolving the compound of the present invention was adopted as a control (100%). Remaining activity (%) was calculated at each concentration of the compound of the present invention compared to a control, and IC value was calculated by reverse-presumption by a logistic model using a concentration and an inhibition rate. IC at Preincubation 0 min/IC at Preincubation 30 min was defined as a value of Shifted IC, and a case that Shifted IC was 1.5 or more was regarded as Positive, and a case that Shifted IC was 1.0 or less was regarded as Negative.

CYP2D6 = CYP2D6 (Homo sapiens (Human), UniProt P10635); assay: CYP inhibition test, CYP2D6; format: in vitro ADME; conditions: pooled human liver microsomes; dextromethorphan O-demethylation; given as 'five kinds'
Source text: as §1

[4] = Solubility test (1% DMSO addition, pH 6.8 artificial intestinal juice); format: physicochemical; conditions: kinetic from dmso stock, 16 hours at 25° C.
Protocol: The solubility of the compound of the present invention was determined under 1% DMSO addition conditions. 10 mmol/L solution of the compound was prepared with DMSO, and 6 μL of the solution of the compound of the present invention was added to 594 μL of pH 6.8 artificial intestinal juice (118 mL of 0.2 mol/L NaOH test solution and water were added to 250 mL of 0.2 mol/L potassium dihydrogen phosphate test solution to reach 1000 mL). The mixture was left standing for 16 hours at 25° C., and the mixture was vacuum-filtered. The filtrate was two-fold diluted with methanol/water=1/1 (V/V), and the compound concentration in the filtrate was measured with HPLC or LC/MS/MS by the absolute calibration method. The dilution concentration and the dilution solvent were changed as necessary.

[5] = BA test (oral absorption); format: in vivo; conditions: plasma; mice or SD rats; from AUCs of oral and intravenous administration
Protocol: Materials and methods for experiments to evaluate oral absorption
(1) Animals: the mice or SD rats were used.
(2) Breeding conditions: the mice or SD rats were allowed to freely take solid food and sterilized tap water.
(3) Setting of dosage and grouping: Oral administration and intravenous administration were performed with a predetermined dosage. Grouping was set as below. (dosage changed per compound)
Oral administration: 1 to 30 mg/kg (n=2 to 3)
Intravenous administration: 0.5 to 10 mg/kg (n=2 to 3)
(4) Preparation of administration solution: Oral administration was performed in the form of a suspension or a solution. Intravenous administration was performed after solubilization.
(5) Routes of administration: Oral administration was performed mandatory into the stomach by oral sonde. Intravenous administration was performed from caudal vein or femoral vein by syringes with needle.
(6) Evaluation items: blood was collected over time, and the plasma concentration of the compound of the present invention was measured by LC/MS/MS.
(7) Statistical analysis: regarding the transition of the plasma concentration of the compound of the present invention, the area under the plasma concentration-time curve (AUC) was calculated by non-linear least squares program WinNonlin (registered trademark), and the bioavailability (BA) of the compound of the present invention was calculated from the AUCs of the oral administration group and intravenous administration group.

Chain of CYP2D6 (P10635 whole entry): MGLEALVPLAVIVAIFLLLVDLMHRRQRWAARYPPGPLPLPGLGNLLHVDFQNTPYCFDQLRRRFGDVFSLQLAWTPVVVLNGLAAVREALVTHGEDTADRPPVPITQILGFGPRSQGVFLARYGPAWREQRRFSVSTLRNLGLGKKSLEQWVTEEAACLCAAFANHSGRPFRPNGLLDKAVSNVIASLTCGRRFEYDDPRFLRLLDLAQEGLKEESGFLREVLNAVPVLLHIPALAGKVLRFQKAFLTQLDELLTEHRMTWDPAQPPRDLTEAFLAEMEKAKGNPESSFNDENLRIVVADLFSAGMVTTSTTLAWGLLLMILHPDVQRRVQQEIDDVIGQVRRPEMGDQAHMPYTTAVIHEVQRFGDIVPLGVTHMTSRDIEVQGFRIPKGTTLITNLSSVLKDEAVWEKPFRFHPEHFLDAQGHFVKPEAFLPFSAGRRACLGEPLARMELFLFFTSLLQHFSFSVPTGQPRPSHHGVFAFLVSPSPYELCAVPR
Chain of CYP2C9 (P11712 whole entry): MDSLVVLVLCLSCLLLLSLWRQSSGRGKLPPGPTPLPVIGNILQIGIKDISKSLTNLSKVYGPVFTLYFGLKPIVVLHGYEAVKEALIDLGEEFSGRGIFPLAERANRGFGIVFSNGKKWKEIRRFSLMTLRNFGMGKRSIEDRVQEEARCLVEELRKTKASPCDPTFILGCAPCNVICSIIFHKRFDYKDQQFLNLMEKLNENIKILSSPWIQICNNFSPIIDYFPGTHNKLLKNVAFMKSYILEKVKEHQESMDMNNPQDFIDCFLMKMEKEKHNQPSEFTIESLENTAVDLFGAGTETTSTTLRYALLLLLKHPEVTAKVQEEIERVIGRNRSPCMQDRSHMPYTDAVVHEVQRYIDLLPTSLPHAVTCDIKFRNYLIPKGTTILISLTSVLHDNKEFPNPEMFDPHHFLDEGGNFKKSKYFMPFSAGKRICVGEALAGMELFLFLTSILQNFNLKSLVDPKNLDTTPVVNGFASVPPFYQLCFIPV
Chain of hERG (IKr) (Q12809 whole entry): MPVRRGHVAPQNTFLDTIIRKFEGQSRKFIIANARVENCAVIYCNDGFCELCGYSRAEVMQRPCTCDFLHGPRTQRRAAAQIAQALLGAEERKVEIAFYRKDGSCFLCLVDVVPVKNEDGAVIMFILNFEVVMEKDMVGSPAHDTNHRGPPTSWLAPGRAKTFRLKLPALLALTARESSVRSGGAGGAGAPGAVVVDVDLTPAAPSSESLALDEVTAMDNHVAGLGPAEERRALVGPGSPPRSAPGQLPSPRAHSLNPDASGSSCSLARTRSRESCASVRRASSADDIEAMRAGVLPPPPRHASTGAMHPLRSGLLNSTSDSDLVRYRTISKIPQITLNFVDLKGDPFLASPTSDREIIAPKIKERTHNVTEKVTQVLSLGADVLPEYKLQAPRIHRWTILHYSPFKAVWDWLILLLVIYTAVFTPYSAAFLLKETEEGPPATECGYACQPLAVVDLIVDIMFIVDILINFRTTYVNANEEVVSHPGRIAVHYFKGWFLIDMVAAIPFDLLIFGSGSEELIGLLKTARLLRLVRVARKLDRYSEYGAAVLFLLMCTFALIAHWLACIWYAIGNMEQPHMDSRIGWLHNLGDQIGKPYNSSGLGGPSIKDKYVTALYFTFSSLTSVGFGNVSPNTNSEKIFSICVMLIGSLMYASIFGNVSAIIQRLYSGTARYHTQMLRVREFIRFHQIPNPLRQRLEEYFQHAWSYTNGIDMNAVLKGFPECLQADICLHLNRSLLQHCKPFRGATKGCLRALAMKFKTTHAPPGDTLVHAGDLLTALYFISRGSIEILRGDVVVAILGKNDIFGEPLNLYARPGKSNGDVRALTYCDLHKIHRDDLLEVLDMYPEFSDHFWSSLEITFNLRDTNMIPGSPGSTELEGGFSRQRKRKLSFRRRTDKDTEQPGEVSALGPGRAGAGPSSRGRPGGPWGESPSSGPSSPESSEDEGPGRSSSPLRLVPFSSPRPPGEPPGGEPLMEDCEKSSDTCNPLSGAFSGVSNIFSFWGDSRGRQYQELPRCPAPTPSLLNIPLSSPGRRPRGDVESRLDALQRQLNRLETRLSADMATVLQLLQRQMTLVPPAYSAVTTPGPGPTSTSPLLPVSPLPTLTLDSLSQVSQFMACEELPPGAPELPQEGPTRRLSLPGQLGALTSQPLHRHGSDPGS
Chain of CYP1A2 (P05177 whole entry): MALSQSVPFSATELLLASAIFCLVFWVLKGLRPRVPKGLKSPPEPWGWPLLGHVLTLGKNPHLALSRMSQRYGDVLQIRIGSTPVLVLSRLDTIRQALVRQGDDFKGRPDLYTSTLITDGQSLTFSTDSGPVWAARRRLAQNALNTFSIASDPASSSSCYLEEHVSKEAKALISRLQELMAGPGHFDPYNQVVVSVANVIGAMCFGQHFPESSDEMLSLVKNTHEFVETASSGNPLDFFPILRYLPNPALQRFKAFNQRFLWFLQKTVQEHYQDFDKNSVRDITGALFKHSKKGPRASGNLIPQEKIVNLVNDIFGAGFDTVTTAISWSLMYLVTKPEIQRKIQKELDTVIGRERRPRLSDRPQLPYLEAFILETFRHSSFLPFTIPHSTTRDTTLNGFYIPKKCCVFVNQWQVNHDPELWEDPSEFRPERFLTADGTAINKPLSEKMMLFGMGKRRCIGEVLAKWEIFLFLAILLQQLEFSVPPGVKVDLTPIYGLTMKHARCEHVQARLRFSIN
T1 sequence (P08684 whole entry): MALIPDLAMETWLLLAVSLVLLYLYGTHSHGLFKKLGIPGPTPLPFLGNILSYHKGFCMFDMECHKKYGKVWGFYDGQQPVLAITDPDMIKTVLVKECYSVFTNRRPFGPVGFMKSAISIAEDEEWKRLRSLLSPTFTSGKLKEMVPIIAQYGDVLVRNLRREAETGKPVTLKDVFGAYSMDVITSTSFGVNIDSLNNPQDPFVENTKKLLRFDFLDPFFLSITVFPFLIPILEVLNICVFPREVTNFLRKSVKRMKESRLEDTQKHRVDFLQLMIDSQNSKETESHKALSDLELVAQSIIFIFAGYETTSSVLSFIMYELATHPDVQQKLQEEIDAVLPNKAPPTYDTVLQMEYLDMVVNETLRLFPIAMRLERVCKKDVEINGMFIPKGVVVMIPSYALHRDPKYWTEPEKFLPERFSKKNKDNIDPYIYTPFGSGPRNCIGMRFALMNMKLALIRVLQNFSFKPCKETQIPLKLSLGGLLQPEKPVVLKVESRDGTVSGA
Chain of CYP2C19 (P33261 whole entry): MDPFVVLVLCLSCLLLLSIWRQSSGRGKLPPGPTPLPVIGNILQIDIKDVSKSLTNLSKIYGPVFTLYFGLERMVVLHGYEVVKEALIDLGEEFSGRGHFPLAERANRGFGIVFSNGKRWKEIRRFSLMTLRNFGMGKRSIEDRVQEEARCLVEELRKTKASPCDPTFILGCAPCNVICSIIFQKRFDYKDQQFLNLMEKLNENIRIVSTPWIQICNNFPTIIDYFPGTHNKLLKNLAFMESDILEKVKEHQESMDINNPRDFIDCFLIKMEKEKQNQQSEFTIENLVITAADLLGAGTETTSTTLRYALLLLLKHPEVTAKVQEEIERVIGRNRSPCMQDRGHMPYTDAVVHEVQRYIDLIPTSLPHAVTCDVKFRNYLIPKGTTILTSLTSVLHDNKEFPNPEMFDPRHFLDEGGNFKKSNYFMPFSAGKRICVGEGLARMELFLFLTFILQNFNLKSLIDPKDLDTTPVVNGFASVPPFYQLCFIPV

Structure (SMILES)	Remaining rate [1]	IC50 (CYP3A4 [2])	IC50 (CYP1A2)	IC50 (CYP2C9)	IC50 (CYP2C19)	inhibition at 10 min, 10 μmol/L (hERG (IKr))	CYP3A4 (MDZ) MBI (Shifted IC judgement) (CYP3A4 [3])	IC50 (CYP2D6)	solubility at 16 h [4]	bioavailability [5]
CS(=O)(=O)CC(=O)Nc1c(-c2ccc(F)cc2)nn2c1C(=O)N[C@@]1(CCOc3cc(OCC(F)(F)F)ccc31)C2 [Compound I-66]	105%	> 20 µM	> 20 µM	> 20 µM	> 20 µM	14.6%	Negative (a case that Shifted IC was 1.0 or less was regarded as Negative)	> 20 µM	> 50 µM	
CS(=O)(=O)CC(=O)Nc1c(-c2ccc(Cl)cn2)nn2c1C(=O)N[C@@]1(CCc3cc(F)cc(F)c31)C2 [Compound I-142]	106%	> 20 µM	> 20 µM	> 20 µM	> 20 µM	10.6%		> 20 µM	> 50 µM	66.2%
CS(=O)(=O)CC(=O)Nc1c(-c2ccc(F)c(F)c2)nn2c1C(=O)N[C@@]1(CCc3cc(OCC(F)(F)F)ccc31)C2 [Compound I-33]	98.5%	> 20 µM	> 20 µM	> 20 µM	> 20 µM	21.3%		> 20 µM		60.5%
CS(=O)(=O)CC(=O)Nc1c(-c2ccc(F)c(F)c2)nn2c1C(=O)N[C@@]1(CCc3cc(F)cc(F)c31)C2 [Compound I-130]	94.8%	> 20 µM	> 20 µM	> 20 µM	> 20 µM	15.4%	Negative (a case that Shifted IC was 1.0 or less was regarded as Negative)	> 20 µM	> 50 µM	
CS(=O)(=O)CC(=O)Nc1c(-c2ccc(F)c(F)c2)nn2c1C(=O)N[C@@]1(CCOc3cc(F)cc(F)c31)C2 [Compound I-126]	100%	> 20 µM	> 20 µM	> 20 µM	> 20 µM	14.2%	Negative (a case that Shifted IC was 1.0 or less was regarded as Negative)	> 20 µM	> 50 µM	
CS(=O)(=O)CC(=O)Nc1c(-c2ccc(Cl)cn2)nn2c1C(=O)N[C@@]1(CCOc3cc(F)cc(F)c31)C2 [Compound I-137]	101%					23.6%			> 50 µM	49%
CS(=O)(=O)CC(=O)Nc1c(-c2ccc(Cl)cn2)nn2c1C(=O)N[C@]1(CCOc3cc(F)cc(F)c31)C2 [Compound I-151]	104%	> 20 µM	> 20 µM	> 20 µM	> 20 µM	25.8%	Negative (a case that Shifted IC was 1.0 or less was regarded as Negative)	> 20 µM	> 50 µM	
CS(=O)(=O)CC(=O)Nc1c(-c2ccc(Cl)cn2)nn2c1C(=O)N[C@]1(CCc3cc(F)cc(F)c31)C2 [Compound I-147]	89.8%	> 20 µM	> 20 µM	> 20 µM	> 20 µM	21.6%	Negative (a case that Shifted IC was 1.0 or less was regarded as Negative)	> 20 µM	> 50 µM	
